Measured values as given in paper PMC6272497, “Biological Activities and Cytotoxicity of Diterpenes from Copaifera spp. Oleoresins” (Molecules, 2015).
“Also recorded” adds a separate entry of the source.

What was measured:
[1] = tested on: MCP-1 production in RAW 264.7 murine macrophages; set-up: method as in PMID 18267111; conditions: 20 µM to 50 µM; cited from earlier work
[2] = tested on: TNF-α production in RAW 264.7 murine macrophages; set-up: method as in PMID 18267111; conditions: 20 µM to 50 µM; cited from earlier work
AGP01 (gastric) = test: Alamar Blue assay, tumoral cells AGP01; assay type: cell-based; conditions: 72 h, 20 µmol/L; listed as Kaurenoic Acid
Procedure: (§1) We also investigated possible cytotoxic effects on tumor cell lines (Table 1). To characterize this activity, the compounds were tested in different tumor cell lines, among which were AGP-01 (gastric), HCT116 (colorectal), MCF07 (breast cancer), NIHOVCAR (ovary), SKAMELL-4 (melanoma), and SF-295 (human glioblastoma), each at a concentration of 20 µM.
(§2) Cytotoxicity assay. The cytotoxicity of diterpene compounds to the murine macrophage cell line J774 was determined by the Alamar Blue method as described by Nakayama et al.. Briefly, adherent cells (5 × 10^3 cells/well) were grown in 96-well tissue culture plates and exposed to substances (2.5 to 10 µg/mL) for 24, 48 and 72 h. After incubation, the Alamar Blue solution (10 μL of 0.4% Alamar Blue (resazurin) in PBS) was added and the cells were incubated for 3 h at 37 °C. Fluorescence was measured (excitation at 545 nm and emission at 595 nm) and expressed as a percentage of the cells in the control after background fluorescence was subtracted. As a positive control of cell death, doxorubicin (5 µg/mL) was used. The assays were performed in triplicate. For the assays with tumoral cells, an Alamar Blue assay was performed using the following cell lines: AGP01—gastric; HCT116—colorectal; MCF07—breast cancer; NIHOVCAR—ovary; SKAMELL4—melanoma; SF295—human glioblastoma, which were seeded in 96-well plates (0.5 × 10^4 cells per well) and incubated in a CO2 atmosphere at 5% and 37 °C. After 24 h, diterpenes at 20 µM were added to each well and incubated for 72 h. Doxorubicin (10 μM) was used as a positive control and DMSO (0.1%) as a negative control. Before the end of the incubation, 10 µL of Alamar Blue (0.02%) was added to each well. The fluorescent signal was monitored using a multiplate reader using a 530–560 nm excitation wavelength and 590 nm emission wavelength. The fluorescent signal generated from the assay was proportional to the number of live cells in the sample, according to the manufacturer.

HCT-116 (colorectal) = test: Alamar Blue assay, tumoral cells HCT-116; assay type: cell-based; conditions: 72 h, 20 µmol/L; listed as Kaurenoic Acid
Procedure: as §1, §2

NIHOVCAR (ovary) = test: Alamar Blue assay, tumoral cells NIHOVCAR; assay type: cell-based; conditions: 72 h, 20 µmol/L; listed as Kaurenoic Acid
Procedure: as §1, §2

[3] = tested on: SF295 (human glioblastoma); test: Alamar Blue assay, tumoral cells SF295; assay type: cell-based; conditions: 72 h, 20 µmol/L
Procedure: as §1, §2

MCF7 (breast cancer) = test: Alamar Blue assay, tumoral cells MCF7; assay type: cell-based; conditions: 72 h, 20 µmol/L
Procedure: as §1, §2

SKMELL28 (melanoma) = test: Alamar Blue assay, tumoral cells SKMELL28; assay type: cell-based; conditions: 72 h, 20 µmol/L
Procedure: as §1, §2

[4] = tested on: nitric oxide production in J774 macrophages stimulated with LPS; test: NO production assay (Griess) in LPS-stimulated J774 cells; assay type: cell-based, murine; conditions: Mus musculus; J774, LPS 1 µg/mL, 24 h; read-out: inhibition of NO production IC50
Procedure: Our study evaluated the effects of diterpene compounds on the production of nitric oxide in the murine macrophage cell line J774 stimulated with LPS (Figure 2D). NO^• levels were measured by the Greiss method. […] Similar results for kaurenoic acid were observed by Choi et al. […] Figure 2 Effect of the isolated diterpenic acids on nitric oxide (NO^•) and cytokine production in lipopolysaccharide-stimulated J774 cells. (A) TNF-α, (B) IL-6 and (C) IL-10 and (D) NO^•. […] The nitrite and cytokines values are the mean ± S.D. from three independent experiments. Indomethacin was used as a standard. Statistical analysis was performed using the Holm-Sidak multiple comparison. * p < 0.05 when compared to control stimulated with LPS. (1) 3-hydroxy-copalic acid, (2) kaurenoic acid, (3) 3-acetoxy-copalic acid, (4) kolavic acid 15-methyl ester, (5) copalic acid and (6) […]. NO^• production by J774 cells was assayed by measuring the accumulation of nitrite in the culture medium using a Griess reaction. Briefly, after incubation of the cells (1 × 10^6 cells/mL) with diterpene compounds in different concentrations from 6.25 to 100 μM, cells were incubated for 24 h with LPS (1 μg/mL), at 37 °C in a 5% CO2 incubator. Nitric oxide was measured as NO2 in culture supernatant by reaction with Griess reagent. Absorbance of the reaction product was determined at 560 nm using a microplate reader (DTX 800, Beckman). Sodium nitrite was used as a standard to calculate nitrite concentrations.

IL-6 production = IL-6 production in LPS-stimulated J774 cells (CBA); assay type: cell-based, murine; conditions: for inhibition of IL-6 production (words): LPS-stimulated J774
Procedure: Figure 2 Effect of the isolated diterpenic acids on nitric oxide (NO^•) and cytokine production in lipopolysaccharide-stimulated J774 cells. (A) TNF-α, (B) IL-6 and (C) IL-10 and (D) NO^•. […] The nitrite and cytokines values are the mean ± S.D. from three independent experiments. Indomethacin was used as a standard. Statistical analysis was performed using the Holm-Sidak multiple comparison. * p < 0.05 when compared to control stimulated with LPS. (1) 3-hydroxy-copalic acid, (2) kaurenoic acid, (3) 3-acetoxy-copalic acid, (4) kolavic acid 15-methyl ester, (5) copalic acid and (6) hardwickiic acid.
[…] The culture supernatants were collected after 24 h of LPS stimulation. The levels of cytokines in the culture media were measured by flow cytometry (BD Cytometric Bead Array—CBA—Mouse Inflammation kit) according to the manufacturer’s instructions.

IL-10 production = IL-10 production in LPS-stimulated J774 cells (CBA); assay type: cell-based, murine
Procedure: Figure 2 Effect of the isolated diterpenic acids on nitric oxide (NO^•) and cytokine production in lipopolysaccharide-stimulated J774 cells. (A) TNF-α, (B) IL-6 and (C) IL-10 and (D) NO^•. Production of NO^• was assayed in culture supernatants of macrophages stimulated with LPS (1 µg/mL) for 24 h in the presence of the four compounds (25 µg/mL to cytokines and 50 µg/mL to NO^•). The nitrite and cytokines values are the mean ± S.D. from three independent experiments. Indomethacin was used as a standard. Statistical analysis was performed using the Holm-Sidak multiple comparison. * p < 0.05 when compared to control stimulated with LPS. (1) 3-hydroxy-copalic acid, (2) kaurenoic acid, (3) 3-acetoxy-copalic acid, (4) kolavic acid 15-methyl ester, (5) copalic acid and (6) hardwickiic acid.
Macrophage cells (1 × 10^6 cells/mL) were incubated with different concentrations of diterpene compounds (12.5 to 50 μM), and then stimulated with 1 μg/mL of LPS. The culture supernatants were collected after 24 h of LPS stimulation. The levels of cytokines in the culture media were measured by flow cytometry (BD Cytometric Bead Array—CBA—Mouse Inflammation kit) according to the manufacturer’s instructions.

CEM (leukemia) = tested on: CEM (leukemia); set-up: method as in PMID 12165328; conditions: single concentration of 78 µM; cited from earlier work
MCF -7 (breast cancer) = tested on: MCF -7 (breast cancer); set-up: method as in PMID 12165328; conditions: single concentration of 78 µM; cited from earlier work
[5] = tested on: HCT -8 cells (colon cancer); set-up: method as in PMID 12165328; conditions: single concentration of 78 µM; cited from earlier work
[6] = tested on: NO production in RAW 264.7 macrophage stimulated by LPS; set-up: method as in PMID 16280009; conditions: RAW 264.7, LPS; kaurenoic acid from Aralia continentalis; read-out: inhibition of NO production IC50; cited from earlier work
[7] = tested on: TNF-α production and expression; set-up: method as in PMID 18313400; conditions: 1 to 20 mg/mL; kaurenoic acid from Helianthus annuus L.; cited from earlier work
erythrocyte = test: Hemolysis test
Procedure: The assay for the characterization of hemolytic activity aimed to evaluate the potential of diterpenes on lysis of the cell membrane.
Blood was collected in heparinized-tubes from Wistar rats, and washed three times with saline solution (NaCl 0.85% + CaCl2 10 mM) by centrifugation at 700 g for 10 min. The pellet of erythrocyte was re-suspended in saline solution for preparation of erythrocyte suspension −2% (SE). A total of 100 µL of the samples of diluted diterpenes was added to 96-well microplates in different concentrations (6.25 to 800 µM); 100 µL of SE was then added; and the samples were incubated for 60 min at 37 °C under constant agitation. The release of hemoglobin was determined after centrifugation (700 g for 10 min) by photometric analysis of the supernatant at 540 nm. Complete hemolysis was achieved using 0.2% Triton X-100 yielding the 100% control value.

Q: With `CC(C)c1ccc2c(c1)CC[C@H]1[C@](C)(C(=O)O)CCC[C@]21C` [Dehydroabietic acid] as the compound, how does the “suppression of MCP-1 production” value [1] read?
A: Its value is “suppresses production”.

Q: And the “suppression of TNF-α production” value [2]?
A: Its value is “suppresses production”.

Q: Which results are given for `C=C1C[C@@]23CC[C@H]4[C@@](C)(CCC[C@@]4(C)C(=O)O)[C@@H]2CC[C@@H]1C3` [kaurenoic acid]?
A: Viability inhibition (%) AGP01 (AGP01 (gastric)): 28.1 ± 4.3%; Viability inhibition (%) HCT-116 (HCT-116 (colorectal)): 0.27 ± 4.3%; Viability inhibition (%) NIHOVCAR (NIHOVCAR (ovary)): ≤0.01%; Viability inhibition (%) SF295 ([3]; listed as Kaurenoic Acid): 28.0 ± 6.5%; Viability inhibition (%) SF295 ([3]; listed as kaurenoic): around 20%; Viability inhibition (%) MCF7 (MCF7 (breast cancer)): ≤0.01%; Viability inhibition (%) SKMELL28 (SKMELL28 (melanoma)): ≤0.01%; IC50 [4]: 61.2 ± 4.2 µM; inhibition of IL-6 production (words) (IL-6 production; listed as Kaurenoic): inhibited the production of IL-6; inhibition of IL-6 production (words) (IL-6 production; listed as kaurenoic): inhibited IL-6 production; inhibition at 25 µM (IL-6 production; Mus musculus, J774, 25 µM (abstract)): 11.2%; IL-10 production (words) (IL-10 production; 12.5 µM and 25 µM): induced the production of IL-10; IL-10 production (words) (IL-10 production; 50 µM): this induction decreased; IL-10 production (words) (IL-10 production; LPS-stimulated J774, 12.5 to 50 µM): increased IL-10 production; also recorded: induced IL-10 production; also recorded: induced production of interleukin-10; inhibition of CEM tumor cells (CEM (leukemia)): 95%; inhibition of MCF-7 tumor cells (MCF -7 (breast cancer)): 45%; inhibition of HCT-8 tumor cells [5]: 45%; IC50 [6]: 51.7 ± 2.4 µM; inhibition of TNF-α production and expression [7]: inhibitory activity on the production and expression of TNF-α; hemolytic activity (erythrocyte; 100 µM (abstract)): 61.7%; hemolytic activity (erythrocyte; 100 mM (so in the source)): 61.7%
